Source: patent US8217050B2, “Adenine derivative as inhibitors of HSP90 for the treatment of cancer” (Chroma Therapeutics Limited, priority 2006, dated 2012)

Key:
[1] = molecular target: T1, human recombinant his-tagged HSP90α (Homo sapiens, UniProt P07900); experiment: Hsp90 HTRF assay (competition with biotinylated GM for binding to HSP90); conditions: bio-GM displacement, 20 h incubation at room temperature, read-out: Inhibitor Activity vs Hsp90
T1 construct: purchased Prospec Technogene #HSP90
Description: An HTRF (homogeneous time resolved fluorescence assay) assay was used to measure the interaction of the compounds with HSP90.
The assay measures binding of biotinylated GM (bio-GM; Biomol, #EI-341, lot: A9199a) to human recombinant his-tagged HSP90α (HSP90; Prospec Technogene, #HSP90, lot: 260HSP9001). A signal is generated by fluorescence resonance energy transfer from an Europium-cryptate labeled anti-his antibody (anti-6HIS-Cryptate; Cisbio International, #61HISKLA, lot: 33V) via the HSP90-GM-biotin complex to a fluorescence acceptor (allophycocyanin) linked to streptavidin (SA-XL; Cisbio International, #610SAXLB, lot: 089).
Unlabeled GM or compounds compete with the bio-GM for binding to HSP90 resulting in reduced fluorescence energy transfer/assay signal.
For the assay a preformed (1 h incubation) complex of HSP90 with the anti-his-K is added to the compound solution in a 384 well microplate (Corning, #3710) and incubated for 15 min. A preformed (1 h incubation) complex of bio-GM with the SA-XL was added to the wells and incubated for 20 h. All incubations were performed at room temperature. The final assay volume was 50 μl/well. The final concentrations in the assay were: 50 mM Hepes pH 7.3, 50 mM NaCl, 100 mM KF, 1 mM EDTA, 1 mM DTT, 0.1% Triton-X-100, 1 nM anti-his-K, 40 nM HSP90, 40 nM SA-XL, 40 nM bio-GM. Test compounds were dissolved in DMSO, prediluted in assay buffer and tested at a final concentration between 5000 nM and 0.3 nM. The resulting DMSO concentration was 0.5% and included in all controls. High controls were without test compounds, low controls without test compounds, without HSP90 and without bio-GM. As a reference inhibitor unlabeled GM was used in the same concentrations as the test compounds.
Inhibition was calculated compared to the assay controls using an Excel spreadsheet (Microsoft). IC50 values were calculated by non-linear least squares fitting to the standard dose-response model using GraphPad Prism (GraphPad Software Inc).

[2] = tested on: HCT 116 cell line; experiment: Cell inhibition assay (WST-1 cell proliferation, 120 hrs); type: cell-based; conditions: Homo sapiens, HCT-116, 120 hrs, read-out: Inhibitor Activity vs HCT 116 cell line
Experimental: Cells were seeded in 96W tissue culture plates (1 well=30 mm^2) at a density of 500 cells per well in 50 μl of the appropriate culture medium (see below). 24 hrs later 50 μl of the compound prepared in the same medium was added as 4 fold dilutions to give final concentrations in the range 0.15 nM-2500 nM (n=6 for each concentration). The plates were then incubated at 37° C., 5% CO2 for 120 hrs. Cell proliferation was assessed using WST-1 (a metabolic indicator dye, Roche Cat no. 1 644 807) according to the manufacturers instructions. The results were calculated as percentage of vehicle response and IC50 values represent the concentration of compound that inhibited the vehicle response by 50%. HCT-116 Culture Medium—Dulbeccos MEM (Sigma D6546) plus 10% heat inactivated fetal calf serum (Hyclone SH30071 Thermo Fischer Scientific) containing 2 mM Glutamine (Sigma cat no G-7513) and 50 U/ml Penicillin and Streptomycin Sulphate (Sigma Cat no P-0781).
Data were expressed as a percentage inhibition of the control, measured in the absence of inhibitor, as follows: % inhibition=100−((S^i/S^o)×100) where S^i is the signal in the presence of inhibitor and S0 is the signal in the presence of DMSO.
IC50 values were determined by non-linear regression analysis, after fitting the results of eight data points to the equation for sigmoidal dose response with variable slope (% activity against log concentration of compound), using Graphpad Prism® software.

Row | IC50 [1] | IC50 [2] | Compound
1 | 1 to 10 µM | – | Nc1ncnc2c1nc(Sc1ccc3c(c1)OCO3)n2-c1ccc(C[C@H](N)C(=O)OC2CCCC2)cc1 [Example 7, Cyclopentyl 4-{6-amino-8-[(1,3-benzodioxol-5-yl)thio]-9H-purin-9-yl}-L-phenylalaninate]
2 | < 1 µM | – | Nc1ncnc2c1nc(Sc1cc3c(cc1I)OCO3)n2CC[C@H](N)C(=O)O [Example 10, (S)-2-amino-4-(6-amino-8-(6-iodobenzo[d][1,3]dioxol-5-ylthio)-9H-purin-9-yl)butanoic acid]
3 | < 1 µM | – | Nc1ncnc2c1nc(Sc1cc3c(cc1I)OCO3)n2CCC[C@H](N)C(=O)O [Example 9, (S)-2-amino-5-(6-amino-8-(6-iodobenzo[d][1,3]dioxol-5-ylthio)-9H-purin-9-yl)pentanoic acid]
4 | 1 to 10 µM | – | Nc1ncnc2c1nc(Sc1ccc3c(c1)OCO3)n2-c1ccc(C[C@H](N)C(=O)O)cc1 [Example 13, 4-{6-amino-8-[(1,3-benzodioxol-5-yl)thio]-9H-purin-9-yl}-L-phenylalanine]
5 | 1 to 10 µM | – | Nc1ncnc2c1nc(Sc1cc3c(cc1Br)OCO3)n2-c1ccc(C[C@H](N)C(=O)OC2CCCC2)cc1 [Example 8, Cyclopentyl 4-{6-amino-8-[(6-bromo-1,3-benzodioxol-5-yl)thio]-9H-purin-9-yl}-L-phenylalaninate]
6 | < 1 µM | – | Nc1ncnc2c1nc(Sc1cc3c(cc1Br)OCO3)n2-c1ccc(C[C@H](N)C(=O)O)cc1 [Example 14, 4-{6-amino-8-[(6-bromo-1,3-benzodioxol-5-yl)thio]-9H-purin-9-yl}-L-phenyl alanine]
7 | < 1 µM | – | Nc1ncnc2c1nc(Sc1cc3c(cc1I)OCO3)n2C[C@H](N)C(=O)OC1CCCC1 [Example 6, Cyclopentyl 3-{6-amino-8-[(6-iodo-1,3-benzodioxol-5-yl)thio]-9H-purin-9-yl}-L-alaninate]
8 | < 1 µM | < 1 µM | Nc1ncnc2c1nc(Sc1cc3c(cc1I)OCO3)n2CCC[C@@H](N)C(=O)OC1CCCC1 [Example 3, (R)-Cyclopentyl 2-amino-5-(6-amino-8-(6-iodobenzo[d][1,3]dioxol-5-ylthio)-9H-purin-9-yl)pentanoate]
9 | < 1 µM | < 1 µM | Nc1ncnc2c1nc(Sc1cc3c(cc1I)OCO3)n2CC[C@H](N)C(=O)OC1CCCC1 [Example 2, (S)-cyclopentyl 2-amino-4-(6-amino-8-(6-iodobenzo[d][1,3]dioxol-5-ylthio)-9H-purin-9-yl)butanoate]
10 | < 1 µM | < 1 µM | Nc1ncnc2c1nc(Sc1cc3c(cc1I)OCO3)n2CCC[C@H](N)C(=O)OC1CCCC1 [Example 1, (S)-Cyclopentyl 2-amino-5-(6-amino-8-(6-iodobenzo[d][1,3]dioxol-5-ylthio)-9H-purin-9-yl)pentanoate]
11 | < 1 µM | 1 to 10 µM | CC(C)(C)OC(=O)[C@@H](N)CCCn1c(Sc2cc3c(cc2I)OCO3)nc2c(N)ncnc21 [Example 5, (S)-tert-Butyl 2-amino-5-(6-amino-8-(6-iodobenzo[d][1,3]dioxol-5-ylthio)-9H-purin-9-yl)pentanoate]
12 | < 1 µM | < 1 µM | Nc1ncnc2c1nc(Sc1cc3c(cc1I)OCO3)n2CC[C@@H](N)C(=O)OC1CCCC1 [Example 4, (R)-cyclopentyl 2-amino-4-(6-amino-8-(6-iodobenzo[d][1,3]dioxol-5-ylthio)-9H-purin-9-yl)butanoate]
